Measured values published in ChEMBL document CHEMBL1140095, “Design, synthesis, and antibacterial activities of neomycin-lipid conjugates: polycationic lipids with potent gram-positive activity” (2008).
In brackets after ≈: the same amount, converted by molar mass.

Assays:
[1] = test system: Staphylococcus aureus; test: Antibacterial activity against methicillin-resistant Staphylococcus aureus ATCC 33592 after 24 hrs by macrobroth dilution method; format: functional; conditions: ATCC 33592, 24 h
[2] = test system: Escherichia coli; test: Antibacterial activity against Escherichia coli ATCC 25922 after 24 hrs by macrobroth dilution method; format: functional; conditions: ATCC 25922, 24 h
[3] = test system: Staphylococcus epidermidis; test: Antibacterial activity against Staphylococcus epidermidis ATCC 1490 after 24 hrs by macrobroth dilution method; format: functional; conditions: ATCC 1490, 24 h
[4] = test system: Escherichia coli; test: Antibacterial activity against gentamicin-resistant Escherichia coli ATCC 6174 after 24 hrs by macrobroth dilution method; format: functional; conditions: ATCC 6174, 24 h
[5] = test system: Candida albicans; test: Antibacterial activity against Candida albicans; format: functional
[6] = test system: Pseudomonas aeruginosa; test: Antibacterial activity against Pseudomonas aeruginosa ATCC 27853 after 24 hrs by macrobroth dilution method; format: functional; conditions: ATCC 27853, 24 h
[7] = test system: Streptococcus pneumoniae; test: Antibacterial activity against […] Streptococcus pneumoniae ATCC 49619 after 24 hrs by macrobroth dilution method; format: functional; conditions: ATCC 49619, 24 h
[8] = test system: Staphylococcus aureus; test: Antibacterial activity against Staphylococcus aureus ATCC 29213 after 24 hrs by macrobroth dilution method; format: functional; conditions: ATCC 29213, 24 h
[9] = test system: Staphylococcus epidermidis; test: Antibacterial activity against methicillin-resistant Staphylococcus epidermidis ATCC 14990 after 24 hrs by macrobroth dilution method; format: functional; conditions: ATCC 14990, 24 h
[10] = test system: Streptococcus pneumoniae; test: Antibacterial activity against Streptococcus pneumoniae ATCC 49619 after 24 hrs by macrobroth dilution method; conditions: ATCC 49619, 24 h
[11] = test system: Staphylococcus aureus; test: Antibacterial activity against methicillin-susceptible Staphylococcus aureus after 24 hrs by macrobroth dilution method; format: functional
[12] = test system: Escherichia coli; test: Antibacterial activity against Escherichia coli; format: functional
[13] = test system: Staphylococcus aureus; test: Antibacterial activity against methicillin-resistant Staphylococcus aureus; format: functional
[14] = test system: Staphylococcus aureus; test: Antibacterial activity against Staphylococcus aureus; format: functional

| SMILES | MIC [1] [µg/mL] | MIC [2] [µg/mL] | MIC [3] [µg/mL] | MIC [4] [µg/mL] | MIC [5] [µg/mL] | MIC [6] [µg/mL] | MIC [7] [µg/mL] | MIC [8] [µg/mL] | MIC [9] [µg/mL] | MIC [10] [µg/mL] | MIC [11] [µg/mL] | MIC [12] [µg/mL] | MIC [13] [µg/mL] | MIC [14] [µg/mL] |
| --- | --- | --- | --- | --- | --- | --- | --- | --- | --- | --- | --- | --- | --- | --- |
| NC[C@@H]1O[C@H](O[C@H]2[C@@H](O)[C@H](O[C@@H]3[C@@H](O)[C@H](N)C[C@H](N)[C@H]3O[C@H]3O[C@H](CN)[C@@H](O)[C@H](O)[C@H]3N)O[C@@H]2CNC(=O)CCCc2ccc3ccc4cccc5ccc2c3c45)[C@H](N)[C@@H](O)[C@@H]1O | 256 (≈ 290 µM) | 32 (≈ 36.2 µM) | 2 (≈ 2.26 µM) | 64 (≈ 72.4 µM) | ≥ 512 | 256 (≈ 290 µM) | > 512 | 16 (≈ 18.1 µM) | 64 (≈ 72.4 µM) | – | – | – | – | – |
| CCCCCC(=O)NC[C@H]1O[C@@H](O[C@@H]2[C@@H](O)[C@H](N)C[C@H](N)[C@H]2O[C@H]2O[C@H](CN)[C@@H](O)[C@H](O)[C@H]2N)[C@H](O)[C@@H]1O[C@H]1O[C@@H](CN)[C@@H](O)[C@H](O)[C@H]1N | > 512 | 16 (≈ 22.5 µM) | 2 (≈ 2.81 µM) | 16 (≈ 22.5 µM) | ≥ 512 | > 512 | – | 16 (≈ 22.5 µM) | 32 (≈ 45 µM) | 64 (≈ 89.9 µM) | – | – | – | – |
| CCCCCCCCCCCCCCCC(=O)NC[C@H]1O[C@@H](O[C@@H]2[C@@H](O)[C@H](N)C[C@H](N)[C@H]2O[C@H]2O[C@H](CN)[C@@H](O)[C@H](O)[C@H]2N)[C@H](O)[C@@H]1O[C@H]1O[C@@H](CN)[C@@H](O)[C@H](O)[C@H]1N | 8 (≈ 9.39 µM) | 32 (≈ 37.6 µM) | 2 (≈ 2.35 µM) | 64 (≈ 75.1 µM) | ≥ 512 | 128 (≈ 150 µM) | – | 4 (≈ 4.69 µM) | 2 (≈ 2.35 µM) | 64 (≈ 75.1 µM) | – | – | – | – |
| CCCCCCCCCCCCCCCCCCCC(=O)NC[C@H]1O[C@@H](O[C@@H]2[C@@H](O)[C@H](N)C[C@H](N)[C@H]2O[C@H]2O[C@H](CN)[C@@H](O)[C@H](O)[C@H]2N)[C@H](O)[C@@H]1O[C@H]1O[C@@H](CN)[C@@H](O)[C@H](O)[C@H]1N | 8 (≈ 8.81 µM) | 128 (≈ 141 µM) | 4 (≈ 4.4 µM) | 128 (≈ 141 µM) | ≥ 512 | 64 (≈ 70.5 µM) | 64 (≈ 70.5 µM) | 8 (≈ 8.81 µM) | 4 (≈ 4.4 µM) | – | – | – | – | – |
| CCCCCCCCCCCC(=O)NC[C@H]1O[C@@H](O[C@@H]2[C@@H](O)[C@H](N)C[C@H](N)[C@H]2O[C@H]2O[C@H](CN)[C@@H](O)[C@H](O)[C@H]2N)[C@H](O)[C@@H]1O[C@H]1O[C@@H](CN)[C@@H](O)[C@H](O)[C@H]1N | > 512 | 64 (≈ 80.4 µM) | 4 (≈ 5.03 µM) | 64 (≈ 80.4 µM) | ≥ 512 | 256 (≈ 322 µM) | – | 32 (≈ 40.2 µM) | 8 (≈ 10.1 µM) | 128 (≈ 161 µM) | – | – | – | – |
| C[C@@H](CCC(=O)NC[C@H]1O[C@@H](O[C@@H]2[C@@H](O)[C@H](N)C[C@H](N)[C@H]2O[C@H]2O[C@H](CN)[C@@H](O)[C@H](O)[C@H]2N)[C@H](O)[C@@H]1O[C@H]1O[C@@H](CN)[C@@H](O)[C@H](O)[C@H]1N)[C@@H]1CC[C@H]2[C@@H]3[C@@H](O)C[C@H]4C[C@@H](O)CC[C@@]4(C)[C@H]3C[C@@H](O)[C@]21C (stereo in doubt) | 128 (≈ 127 µM) | 32 (≈ 31.9 µM) | 8 (≈ 7.97 µM) | 64 (≈ 63.7 µM) | ≥ 512 | > 256 | > 256 | 16 (≈ 15.9 µM) | 16 (≈ 15.9 µM) | – | – | – | – | – |
| CCCCCCCCCCCC(=O)O [DODECANOATE] | 400 (≈ 2000 µM) | – | – | – | – | – | – | – | – | – | 400 (≈ 2000 µM) | – | – | – |
| NC[C@@H]1O[C@H](O[C@H]2[C@@H](O)[C@H](O[C@@H]3[C@@H](O)[C@H](N)C[C@H](N)[C@H]3O[C@H]3O[C@H](CN)[C@@H](O)[C@H](O)[C@H]3N)O[C@@H]2CO)[C@H](N)[C@@H](O)[C@@H]1O [FRAMYCETIN] | 256 (≈ 416 µM) | 8 (≈ 13 µM) | 1 (≈ 1.63 µM) | 4 (≈ 6.51 µM) | ≥ 512 | 512 (≈ 833 µM) | 64 (≈ 104 µM) | 2 (≈ 3.25 µM) | 0.5 (≈ 0.813 µM) | – | – | – | – | – |
| CCCCCCCCCCCCC/C=C/[C@@H](O)[C@@H](N)CO [SPHINGOSINE] | – | – | – | – | 6 (≈ 20 µM) | – | – | – | – | – | – | 42 (≈ 140 µM) | 4 (≈ 13.4 µM) | 2 (≈ 6.68 µM) |
